Test results as given in BindingDB's records for doi:10.1021/jm00054a014 (Monsanto Corporate Research, 1993).

What follows are molecules tested against T1, Dimer of Gag-Pol polyprotein [489-587] (Human immunodeficiency virus 1, UniProt P12497) (assay: Protease Inhibition Assay). Conditions: pH 6.4; 25 °C.
T1 construct: 489-587
Method: IC50 values for inhibition of recombinant HIV protease were determined using the spectrofluorometric assay, which utilized an intramolecularly quenched fluorogenic substrate, 2-(aminobenzoyl)-Thr-Ile-Nle-Phe(p-NO2)-Gln-ArgNH2. Cleavage of the substrate by HIV protease released the fluorescent N-terminal tripeptide from its close apposition to the quenching nitrobenzyl group, resulting in enhanced fluorescence.

Row | SMILES | IC50 [µM]
1 | CCCCNC(=O)N(C)C[C@@H](O)[C@H](Cc1ccccc1)NC(=O)[C@H](CC(N)=O)NC(=O)OCc1ccccc1 [benzyl N-[(1S)-1-{[(2S,3R)-4-[(butylcarbamoyl)(methyl)amino]-3-hydroxy-1-phenylbutan-2-yl]carbamoyl}-2-carbamoylethyl]carbamate] | > 10
2 | CCCCNC(=O)N(CC(C)C)C[C@H](O)[C@H](Cc1ccccc1)NC(=O)[C@H](CC(N)=O)NC(=O)OCc1ccccc1 [benzyl N-[(1S)-1-{[(2S,3S)-4-[(butylcarbamoyl)(2-methylpropyl)amino]-3-hydroxy-1-phenylbutan-2-yl]carbamoyl}-2-carbamoylethyl]carbamate] | > 10
3 | CCCCNC(=O)N(C)C[C@H](O)[C@H](Cc1ccccc1)NC(=O)[C@H](CC(N)=O)NC(=O)OCc1ccccc1 [benzyl N-[(1S)-1-{[(2S,3S)-4-[(butylcarbamoyl)(methyl)amino]-3-hydroxy-1-phenylbutan-2-yl]carbamoyl}-2-carbamoylethyl]carbamate] | > 10
4 | CNC(=O)N(C)C[C@@H](O)[C@H](Cc1ccccc1)NC(=O)[C@H](CC(N)=O)NC(=O)OCc1ccccc1 [benzyl N-[(1S)-2-carbamoyl-1-{[(2S,3R)-3-hydroxy-4-[methyl(methylcarbamoyl)amino]-1-phenylbutan-2-yl]carbamoyl}ethyl]carbamate] | > 10
5 | CNC(=O)N(CC(C)C)C[C@H](O)[C@H](Cc1ccccc1)NC(=O)[C@H](CC(N)=O)NC(=O)OCc1ccccc1 [benzyl N-[(1S)-2-carbamoyl-1-{[(2S,3S)-3-hydroxy-4-[(methylcarbamoyl)(2-methylpropyl)amino]-1-phenylbutan-2-yl]carbamoyl}ethyl]carbamate] | > 10
6 | CNC(=O)N(C)C[C@H](O)[C@H](Cc1ccccc1)NC(=O)[C@H](CC(N)=O)NC(=O)OCc1ccccc1 [benzyl N-[(1S)-2-carbamoyl-1-{[(2S,3S)-3-hydroxy-4-[methyl(methylcarbamoyl)amino]-1-phenylbutan-2-yl]carbamoyl}ethyl]carbamate] | > 10
